Calls of active or inactive are those of the source.

One test concerns the target Mu-type opioid receptor (Homo sapiens, UniProt P35372). It is filed as functional, cell-based.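 Also: U2OS cells with beta-arrestin recruitment to OPRM1 by beta-gal complementation.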
Test [1] addresses Beta-2 adrenergic receptor (Homo sapiens, UniProt P07550). Put plainly: beta2AR agonists driving receptor internalization, dose response, cell-based, FAP fluorogen, flow cytometry, cherry pick 1 (AID 588763). It is filed as functional.
Test [2] deals with 5-hydroxytryptamine receptor 2A (Mus musculus, UniProt P35363). In kind it is functional, cell-based.
Chain of 5-hydroxytryptamine receptor 2A (P35363 whole entry): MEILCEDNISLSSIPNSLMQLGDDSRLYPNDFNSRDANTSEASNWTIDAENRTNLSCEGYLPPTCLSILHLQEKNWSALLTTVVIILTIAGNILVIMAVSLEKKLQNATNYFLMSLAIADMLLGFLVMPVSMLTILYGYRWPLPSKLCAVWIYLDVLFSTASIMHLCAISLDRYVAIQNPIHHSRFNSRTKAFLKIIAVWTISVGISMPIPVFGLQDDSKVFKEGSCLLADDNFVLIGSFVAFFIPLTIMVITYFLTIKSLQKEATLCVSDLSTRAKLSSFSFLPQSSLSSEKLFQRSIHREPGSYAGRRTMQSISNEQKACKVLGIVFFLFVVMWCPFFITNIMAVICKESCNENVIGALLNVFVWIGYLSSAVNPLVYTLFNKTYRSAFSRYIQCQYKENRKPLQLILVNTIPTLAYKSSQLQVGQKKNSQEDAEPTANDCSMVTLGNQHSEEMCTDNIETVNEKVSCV
In test [3] the target is DNA dC->dU-editing enzyme APOBEC-3G (Homo sapiens, UniProt Q9HC16). The test can be described thus: Dose Response confirmation of small molecule APOBEC3G DNA Deaminase Inhibitors via a fluorescence-based single-stranded DNA deaminase assay. [Related pubchem assays (depositor defined):AID493012, AID493028]. In kind it is functional.
Chain of DNA dC->dU-editing enzyme APOBEC-3G (Q9HC16 whole entry): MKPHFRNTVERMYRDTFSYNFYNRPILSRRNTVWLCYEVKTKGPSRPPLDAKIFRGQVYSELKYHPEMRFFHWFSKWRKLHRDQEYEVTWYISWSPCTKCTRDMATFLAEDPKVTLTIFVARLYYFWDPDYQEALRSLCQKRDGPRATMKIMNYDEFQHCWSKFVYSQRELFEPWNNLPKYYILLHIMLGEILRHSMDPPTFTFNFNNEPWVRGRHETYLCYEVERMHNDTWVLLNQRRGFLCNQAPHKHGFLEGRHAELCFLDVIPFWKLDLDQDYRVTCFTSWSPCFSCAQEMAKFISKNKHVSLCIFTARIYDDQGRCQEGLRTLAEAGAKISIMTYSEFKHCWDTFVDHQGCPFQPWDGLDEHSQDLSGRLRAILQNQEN
The nature of test [4]: THP-1 cell cytotoxicity, dose response, cytotoxicity control for Vif-APOBEC3G degradation inhibitor project, THP-1 cells (AID 1117359). It is filed as functional. The note with it: Human immunodeficiency virus 1, THP-1.
Test [5] addresses Beta-adrenergic receptor kinase 1 (Homo sapiens, UniProt P25098). Put plainly: aptamer displacement from bead-bound GRK2 – biochemical, cherry pick 1, bead flow cytometry, dose response (AID 504500).
For test [6], the target named is T1, Small ubiquitin-related modifier 1 (Homo sapiens, UniProt P63165). Put plainly: inhibitors of SUMO1 peptide binding, dose response, biochemical, fluorescence polarization, uHTS hits (AID 624382). To be noted: read-out: IC50_Mean. It is filed as functional.
T1 sequence (P63165 whole entry): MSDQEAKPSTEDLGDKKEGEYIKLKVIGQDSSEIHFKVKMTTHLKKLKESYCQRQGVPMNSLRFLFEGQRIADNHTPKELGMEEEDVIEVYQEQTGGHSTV
Test [7] has as its target T1, Small ubiquitin-related modifier 1. The test can be described thus: inhibitors of SUMO1 partner interactions, dose response, biochemical, FRET (AID 624383). In kind it is functional. The note with it: read-out: IC50_Mean.
Test [8] deals with DNA dC->dU-editing enzyme APOBEC-3A (Homo sapiens, UniProt P31941). Put plainly: APOBEC3A DNA deaminase inhibitors, dose response, biochemical (AID 504722). It is filed as functional.
Chain of DNA dC->dU-editing enzyme APOBEC-3A (P31941 whole entry, the tested form may be a part): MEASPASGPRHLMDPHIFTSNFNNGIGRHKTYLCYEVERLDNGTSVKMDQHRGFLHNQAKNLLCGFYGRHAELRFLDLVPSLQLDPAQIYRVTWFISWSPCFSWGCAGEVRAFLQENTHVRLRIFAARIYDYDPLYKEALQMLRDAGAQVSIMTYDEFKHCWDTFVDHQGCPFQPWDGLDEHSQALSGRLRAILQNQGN
For test [9], the target named is T2, Carboxy-terminal domain RNA polymerase II polypeptide A small phosphatase 1 (Homo sapiens, UniProt Q9GZU7).
T2 sequence (Q9GZU7 whole entry): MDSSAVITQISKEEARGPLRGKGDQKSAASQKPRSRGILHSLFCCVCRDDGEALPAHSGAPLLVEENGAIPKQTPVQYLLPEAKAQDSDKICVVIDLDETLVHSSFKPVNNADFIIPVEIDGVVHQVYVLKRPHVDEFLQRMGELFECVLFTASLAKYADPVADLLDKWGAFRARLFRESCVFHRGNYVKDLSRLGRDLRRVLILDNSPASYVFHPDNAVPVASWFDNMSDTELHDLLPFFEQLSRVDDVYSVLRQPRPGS
The test can be described thus: inhibitors of CTDSP1, concentration-response testing, biochemical assay, absorbance-based, actives from ultra-high-throughput screening (AID 540297). It is filed as functional.

A short description of test [10]: NIH-3T3 fibroblast cytotoxicity, dose response, cytotoxicity control, cell-based, fluorescence, Alamar Blue, secondary assay (AID 2327).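 Also: NIH-3T3 mouse fibroblasts cultured with fluconazole at 8 µg/mL.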 In kind it is functional.
In test [11] the test system is BJ. Put plainly: cells. It is filed as functional, cell-based. To be noted: Homo sapiens.
The target of test [12] is T3, Heat shock factor protein 1 (Mus musculus, UniProt P38532).
T3 sequence (P38532 whole entry): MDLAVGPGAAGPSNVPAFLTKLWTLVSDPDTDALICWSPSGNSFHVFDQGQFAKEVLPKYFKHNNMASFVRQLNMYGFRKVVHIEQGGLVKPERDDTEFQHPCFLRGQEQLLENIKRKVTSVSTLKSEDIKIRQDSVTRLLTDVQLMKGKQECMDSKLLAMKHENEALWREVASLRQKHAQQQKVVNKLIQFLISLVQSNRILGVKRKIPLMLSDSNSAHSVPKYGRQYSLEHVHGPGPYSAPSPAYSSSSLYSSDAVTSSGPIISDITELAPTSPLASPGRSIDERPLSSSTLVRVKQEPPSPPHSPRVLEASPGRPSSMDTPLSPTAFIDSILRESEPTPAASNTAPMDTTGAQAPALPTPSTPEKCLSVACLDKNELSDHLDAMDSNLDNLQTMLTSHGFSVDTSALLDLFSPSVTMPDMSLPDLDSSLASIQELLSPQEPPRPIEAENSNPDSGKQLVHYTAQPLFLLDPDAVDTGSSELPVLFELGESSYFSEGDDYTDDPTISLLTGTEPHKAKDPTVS
The test can be described thus: inhibition of MG132-induced HSE-luciferase signal, confirmation, cell-based, NIH3T3, luminescence, dose retest (AID 2382).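 Also: NIH3T3 fibroblasts with HSF1-driven luciferase reporter stressed by proteasome inhibitor MG132; luminescence from HSF1-driven luciferase expression after 8 hours of MG132 stress.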 In kind it is functional.

Test [13] addresses T4, Fatty acid synthase (Homo sapiens, UniProt P49327). The test can be described thus: FAS thioesterase domain inhibitors, dose response, biochemical, kinetic fluorescence intensity (AID 624326).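 Also: rate of fluorescence rise from hydrolysis of a fluorogenic O-methyl fluorescein ester substrate.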 It is filed as functional.
The target in test [14] is T5, V-type proton ATPase subunit c' (Saccharomyces cerevisiae S288c, UniProt P32842). The test can be described thus: Dose Response of Small Molecules that Regulate V-ATPase Proton Transport in Yeast using pHLuorin, Cherry Pick 2. It is filed as functional. The note with it: read-out: EC50_MICROM.
T5 sequence (P32842 whole entry, the tested form may be a part): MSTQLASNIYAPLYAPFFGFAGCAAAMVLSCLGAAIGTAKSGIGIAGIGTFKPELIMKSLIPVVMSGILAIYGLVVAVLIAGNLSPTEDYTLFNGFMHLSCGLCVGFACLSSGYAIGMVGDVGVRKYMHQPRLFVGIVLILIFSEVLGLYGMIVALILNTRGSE
Test [15] can be described thus: inhibitors of HIV Env-driven cell fusion, dose response, cherry-pick (AID 652057). It is filed as functional, cell-based.
Test [16] in a line: inhibitors of firefly luciferase expression or activity, dose response, H4 neuroglioma cells, luminescence (AID 1990). It is filed as functional, cell-based.
Test [17] deals with BJ. The test can be described thus: cytotoxicity toward BJ-TERT-LT-ST fibroblasts, dose response, cell-based, RAS-independent, luminescence (AID 1935).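 Also: BJ fibroblasts immortalized with TERT plus LT and ST oncogenes.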 The note with it: Homo sapiens. In kind it is functional.
Test [18] in a line: C. albicans growth with fluconazole, confirmation, fluorescence, retest (AID 2467). It is filed as functional, cell-based.
The nature of test [19]: inhibitors of clade B AD8 Env fusion, dose response, cell-based, cherry-pick (AID 652062).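 Also: luciferase signal from cell-cell fusion driven by HIV-1 clade B AD8 Env; potency is for inhibitors of fusion seen as a drop in luminescence.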 It is filed as functional.
Test [20] in a line: CEM21 lymphoblast cell cytotoxicity, dose response, cytotoxicity control for viral fusion inhibitor project, CellTiter-Glo luminescence, cherry-picked (AID 652042).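 Also: potency for signal decrease meaning cytotoxicity.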 In kind it is functional, cell-based.
For test [21], the system named is BJ. The test can be described thus: cytotoxicity toward Ras-transformed BJeLR fibroblasts, dose response, cell-based, alamar blue fluorescence, cherrypicked samples (AID 2631).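 Also: confirmatory dose-response assay in RAS-dependent BJ fibroblasts engineered with TERT, LT and ST, with cytotoxicity read by fluorescence.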 In kind it is functional. To be noted: Homo sapiens.
The nature of test [22]: off-target signal loss in HeLa-CEM21 co-culture – HeLa F-luc CTL cells, cherry-picked, counter-screen for HIV-1 Env fusion inhibitor project, dose response (AID 652040).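 Also: potency for signal decrease marking cytotoxic or nonspecific inhibition.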 In kind it is functional, cell-based.
The nature of test [23]: Luminescence-based dose response cell-based high throughput screening assay for cytotoxic compounds using the IEC-6 intestinal epithelial cell line. [Related pubchem assays: 1858 (Summary AID.), 1825 (Counterscreen.), 1907 (Confirmation screen.)]. It is filed as functional.
Test [24] deals with BJ. Put plainly: cytotoxicity toward BJ-TERT fibroblasts, dose response, cell-based, RAS-independent, luminescence (AID 1933). It is filed as functional. To be noted: Homo sapiens.
In test [25] the target is T4, Fatty acid synthase. Put plainly: FAS thioesterase domain inhibitors, dose response, biochemical, endpoint fluorescence intensity, uHTS hits (AID 624327).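 Also: fluorescence from hydrolysis of an O-methyl fluorescein acyl ester substrate by the enzyme.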 It is filed as functional.
Test [26] is described as follows: inhibitors of SNCA 5'UTR-driven reporter translation, confirmation, H4 neuroglioma cells, luminescence (AID 1988). In kind it is functional, cell-based.
A short description of test [27]: cytotoxicity in HEK-293T cells, dose response, cytotoxicity control for TCR NF-kB inhibitor project, luminescence, T-cell screen hits (AID 489026).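 Also: cells exposed to compound about 14 hours before the viability readout.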 In kind it is functional, cell-based.
A short description of test [28]: Luminescence Cell-Based Dose Response HTS to Identify Inhibitors of 5'UTR Stem-Loop Driven Prion Protein mRNA Translation in H4 Neuroglioblastoma Cells. [Related pubchem assays: 1827 (Project Summary), 1813 (Primary HTS)]. In kind it is functional.
Test [29] can be described thus: ZM109 Env clade C HIV-1 fusion inhibitors, dose response, HeLa effector, CEM target cells, luciferase, cherry-pick (AID 652058). It is filed as functional, cell-based.
Test [30] is described as follows: cytotoxicity toward DRD oncogenic fibroblasts, dose response, cell-based, non-viral oncogenic, luminescence (AID 1934). In kind it is functional. To be noted: Homo sapiens.
Test [31] concerns the target Heat shock protein HSP 90-alpha (Homo sapiens, UniProt P07900). It is filed as functional, organism-based.
The target in test [32] is Mitochondrial peptide methionine sulfoxide reductase (Bos taurus, UniProt P54149). It is filed as functional.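 Also: absorbance read-out, biochemical high-throughput dose-response screen for MsrA inhibitors, confirmatory; recombinant bovine MsrA coupled to E. coli TrxB with NADPH and selenocystamine; potency is for inhibitors of MsrA activity on DMSO substrate.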
Chain of Mitochondrial peptide methionine sulfoxide reductase (P54149 whole entry): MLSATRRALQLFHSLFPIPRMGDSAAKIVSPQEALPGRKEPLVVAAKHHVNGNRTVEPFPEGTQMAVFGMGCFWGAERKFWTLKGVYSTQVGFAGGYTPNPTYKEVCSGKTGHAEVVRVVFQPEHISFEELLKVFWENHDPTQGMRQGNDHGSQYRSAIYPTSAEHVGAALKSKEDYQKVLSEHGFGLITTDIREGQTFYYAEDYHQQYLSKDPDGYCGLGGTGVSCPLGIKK
The target in test [33] is T5, V-type proton ATPase subunit c'. The test can be described thus: Dose Response of Small Molecules that Regulate V-ATPase Proton Transport in Yeast using pHLuorin, Cherry Pick 1. [Related pubchem assays (depositor defined):AID504622]. In kind it is functional.

T4 sequence (P49327 whole entry, the tested form may be a part): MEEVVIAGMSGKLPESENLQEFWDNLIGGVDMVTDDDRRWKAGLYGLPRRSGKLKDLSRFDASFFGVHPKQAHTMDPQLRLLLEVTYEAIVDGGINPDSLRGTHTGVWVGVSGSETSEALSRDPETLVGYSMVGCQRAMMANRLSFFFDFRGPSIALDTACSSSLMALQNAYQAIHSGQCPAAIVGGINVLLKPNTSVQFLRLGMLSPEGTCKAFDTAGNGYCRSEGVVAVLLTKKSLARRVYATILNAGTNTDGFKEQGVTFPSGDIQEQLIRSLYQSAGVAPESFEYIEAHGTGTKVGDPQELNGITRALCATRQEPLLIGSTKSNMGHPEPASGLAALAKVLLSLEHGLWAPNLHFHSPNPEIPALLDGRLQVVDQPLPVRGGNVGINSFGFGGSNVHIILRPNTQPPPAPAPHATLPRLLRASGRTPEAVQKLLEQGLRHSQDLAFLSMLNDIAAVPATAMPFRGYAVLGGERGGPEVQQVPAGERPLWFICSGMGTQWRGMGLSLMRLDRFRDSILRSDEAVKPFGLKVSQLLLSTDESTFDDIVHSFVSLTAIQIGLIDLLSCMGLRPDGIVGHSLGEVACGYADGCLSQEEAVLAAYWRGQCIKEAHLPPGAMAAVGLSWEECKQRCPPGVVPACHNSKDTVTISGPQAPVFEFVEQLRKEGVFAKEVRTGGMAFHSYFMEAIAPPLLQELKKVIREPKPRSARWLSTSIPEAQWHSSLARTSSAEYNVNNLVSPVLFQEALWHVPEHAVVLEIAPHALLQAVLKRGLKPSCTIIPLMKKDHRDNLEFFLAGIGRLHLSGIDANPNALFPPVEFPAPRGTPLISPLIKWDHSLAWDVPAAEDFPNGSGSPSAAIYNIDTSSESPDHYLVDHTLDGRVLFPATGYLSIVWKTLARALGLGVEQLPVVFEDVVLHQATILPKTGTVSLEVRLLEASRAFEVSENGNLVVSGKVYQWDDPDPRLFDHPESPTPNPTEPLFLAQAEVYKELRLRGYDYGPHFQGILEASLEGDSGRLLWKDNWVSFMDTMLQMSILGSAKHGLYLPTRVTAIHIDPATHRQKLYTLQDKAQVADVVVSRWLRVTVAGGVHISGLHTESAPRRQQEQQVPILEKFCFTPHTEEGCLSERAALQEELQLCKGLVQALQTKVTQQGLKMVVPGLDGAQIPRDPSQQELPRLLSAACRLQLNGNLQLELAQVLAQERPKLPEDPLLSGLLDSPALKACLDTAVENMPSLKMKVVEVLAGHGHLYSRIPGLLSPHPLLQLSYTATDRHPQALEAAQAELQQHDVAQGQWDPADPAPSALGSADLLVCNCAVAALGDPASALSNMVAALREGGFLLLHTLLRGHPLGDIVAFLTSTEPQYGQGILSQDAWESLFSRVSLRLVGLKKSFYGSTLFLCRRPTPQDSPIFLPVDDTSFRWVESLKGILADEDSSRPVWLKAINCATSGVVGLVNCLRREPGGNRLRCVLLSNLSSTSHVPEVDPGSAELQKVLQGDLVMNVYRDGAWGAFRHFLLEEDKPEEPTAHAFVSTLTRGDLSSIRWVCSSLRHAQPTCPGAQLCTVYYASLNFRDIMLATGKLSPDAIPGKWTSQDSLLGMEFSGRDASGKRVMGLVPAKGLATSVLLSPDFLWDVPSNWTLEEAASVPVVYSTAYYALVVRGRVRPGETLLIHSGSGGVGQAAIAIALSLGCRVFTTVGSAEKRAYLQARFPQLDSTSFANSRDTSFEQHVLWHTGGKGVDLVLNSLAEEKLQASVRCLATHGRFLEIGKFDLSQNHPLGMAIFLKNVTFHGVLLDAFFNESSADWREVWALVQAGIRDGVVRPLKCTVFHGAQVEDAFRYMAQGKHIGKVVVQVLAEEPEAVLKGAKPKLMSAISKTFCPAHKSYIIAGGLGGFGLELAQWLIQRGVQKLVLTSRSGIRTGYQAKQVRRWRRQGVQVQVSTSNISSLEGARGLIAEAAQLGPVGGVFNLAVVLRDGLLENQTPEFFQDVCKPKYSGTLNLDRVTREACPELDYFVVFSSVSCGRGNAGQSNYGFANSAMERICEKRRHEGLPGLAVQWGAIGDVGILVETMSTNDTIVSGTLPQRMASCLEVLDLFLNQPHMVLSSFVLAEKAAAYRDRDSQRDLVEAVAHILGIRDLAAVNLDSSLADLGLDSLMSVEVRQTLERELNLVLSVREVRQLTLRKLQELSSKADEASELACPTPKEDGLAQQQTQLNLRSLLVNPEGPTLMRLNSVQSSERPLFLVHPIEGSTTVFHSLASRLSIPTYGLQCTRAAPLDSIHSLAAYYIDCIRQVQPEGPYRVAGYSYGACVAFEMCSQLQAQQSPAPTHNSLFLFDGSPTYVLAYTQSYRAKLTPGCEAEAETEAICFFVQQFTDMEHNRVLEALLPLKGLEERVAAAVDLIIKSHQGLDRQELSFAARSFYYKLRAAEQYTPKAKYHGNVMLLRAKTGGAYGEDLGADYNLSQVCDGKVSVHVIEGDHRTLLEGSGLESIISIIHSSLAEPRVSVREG
Chain of Beta-2 adrenergic receptor (P07550 whole entry): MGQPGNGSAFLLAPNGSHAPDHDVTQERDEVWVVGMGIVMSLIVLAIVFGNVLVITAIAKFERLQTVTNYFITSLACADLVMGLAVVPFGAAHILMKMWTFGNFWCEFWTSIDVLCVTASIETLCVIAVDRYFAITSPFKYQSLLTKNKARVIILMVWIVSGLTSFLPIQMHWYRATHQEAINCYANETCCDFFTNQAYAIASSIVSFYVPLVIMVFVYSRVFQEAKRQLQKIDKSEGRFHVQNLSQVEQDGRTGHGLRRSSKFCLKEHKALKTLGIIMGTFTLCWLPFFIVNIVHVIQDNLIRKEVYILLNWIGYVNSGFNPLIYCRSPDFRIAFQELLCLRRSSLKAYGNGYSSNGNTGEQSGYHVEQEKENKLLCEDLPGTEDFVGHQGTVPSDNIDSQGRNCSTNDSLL
Chain of Mu-type opioid receptor (P35372 whole entry): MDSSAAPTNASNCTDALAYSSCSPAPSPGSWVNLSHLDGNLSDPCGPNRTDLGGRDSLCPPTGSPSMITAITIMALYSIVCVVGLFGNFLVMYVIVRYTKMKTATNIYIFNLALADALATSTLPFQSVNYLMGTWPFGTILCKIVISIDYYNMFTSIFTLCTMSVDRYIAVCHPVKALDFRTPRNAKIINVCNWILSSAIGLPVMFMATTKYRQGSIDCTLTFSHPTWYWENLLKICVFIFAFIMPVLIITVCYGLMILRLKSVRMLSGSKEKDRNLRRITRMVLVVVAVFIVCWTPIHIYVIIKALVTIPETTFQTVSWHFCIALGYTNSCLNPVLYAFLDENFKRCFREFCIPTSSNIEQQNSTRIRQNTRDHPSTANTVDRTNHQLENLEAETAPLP

Consider `CC(=O)N1CCc2cc(C(=O)CN3CCN(c4cccc(Cl)c4)CC3)ccc21`, for which the EC50 is 92500 nM (inactive) at Mu-type opioid receptor, 47.2 nM (active) in test [1] and 133 nM (active) in test [2].

With `C=C(C)C(=O)Nc1cccc(C2=NOC3(C2)C[C@@H](C(N)=O)N(C(=O)CC(c2ccccc2)c2ccccc2)C3)c1` (some centres undefined), the IC50 in test [3] is 15300 nM (active); in [6], > 66600 nM (inactive); in test [7], 5400 nM (active); in test [8] it was > 100000 nM (inactive); in [9], 6380 nM (active). Besides, the CC50 in [4] was > 40000 nM (active). The EC50 in [5] is 1940 nM (active).

Consider `CCOC(=O)NN=C1c2ccccc2-c2nc3nonc3nc21`, for which the EC50 was 1710 nM (active) in test [10]; 587 nM (inconclusive) with BJ [11]; 3640 nM (active) in test [12]; 2370 nM (active) in [14]; 234 nM (active) in test [16]; 1350 nM (inconclusive) in the test with BJ [17]. Further, the EC50 in test [18] was 83 nM (active); in the test on BJ [21], 1860 nM (active); in the test on BJ [24], 2330 nM (active); in test [26], 131 nM (active); in test [28], 593 nM (active); in test [30], 2390 nM (active). Further, the EC50 in [33] was 27100 nM (active). For the same molecule, the IC50 on Fatty acid synthase [13] is 859 nM (active); in test [23] it was 223 nM (active); at Fatty acid synthase [25], 1670 nM (active); in [27], 3200 nM (active); in test [32], 155000 nM (inactive). The AC50 in test [15] is 4410 nM (active); in [19], 3360 nM (active); in test [20] it was 1700 nM (active); in test [22], 3560 nM (active); in [29], 2960 nM (active); in test [31], 1260 nM (active).

For the origin of these results see ChEMBL document CHEMBL1201862, “PubChem BioAssay data set” (2004).
